Converted amounts (≈) assume the structure as drawn.
What was measured:
[1] = tested on: Mycolicibacterium smegmatis; assay: Antimycobacterial activity against Mycobacterium smegmatis mc2 155 incubated for 2 days by spectrophotometric based assay; assay type: functional; settings: MC2 155, 48 h
[2] = Inhibition of Mycobacterium smegmatis ATCC 607 dihydrofolic reductase; parameters: species or system Mycolicibacterium smegmatis
[3] = tested on: Mycolicibacterium smegmatis; assay: Inhibition of Mycobacterium smegmatis ATCC 607 dihydrofolic reductase assessed as ratio of Km to Ki
[4] = tested on: Mycolicibacterium smegmatis; assay: Antimicrobial activity against Mycobacterium smegmatis ATCC 607; assay type: functional; settings: Mycolicibacterium smegmatis, ATCC 607; read-out: MIC
Plasmodium berghei = assay: Antimalarial activity against Plasmodium berghei infected in albino mouse assessed survival against infection at 400 mg/kg, sc administered as single dose; assay type: functional
Mycobacterium leprae [5] = assay: Anti-leprotic activity against Mycobacterium leprae infected in albino mouse assessed survival against infection at 400 mg/kg, sc administered 58 days post-infection and subsequent compound dosing at 200 mg/kg at 0.5, 1 or 2 months interval; assay type: functional
[6] = Drug excretion in rat urine at 400 mg/kg, sc administered as single dose measured after 30 days; assay type: ADME, organism-based; settings: read-out: Drug excretion
[7] = Half life in rat at 400 mg/kg, sc administered as single dose; assay type: ADME, organism-based; settings: in vivo
[8] = Drug concentration in rat blood at 400 mg/kg, sc administered as single dose; assay type: ADME, organism-based; settings: in vivo
Rattus norvegicus = assay: Effect of metallo-protein haemoglobin in rat assessed as peak methemoglobin level at 400 mg/kg, sc administered as single dose; assay type: ADME, organism-based; settings: in vivo
[9] = tested on: Mycolicibacterium smegmatis; assay: Antimicrobial activity against Mycobacterium smegmatis incubated for 24 hrs by broth microdilution assay; assay type: functional
Mycolicibacterium aurum = assay: Antimicrobial activity against Mycobacterium aurum incubated for 24 hrs by broth microdilution assay; assay type: functional
Mycolicibacterium vaccae = assay: Antimicrobial activity against Mycobacterium vaccae incubated for 24 hrs by broth microdilution assay; assay type: functional
[10] = tested on: Mycolicibacterium fortuitum; assay: Antimicrobial activity against Mycobacterium fortuitum incubated for 24 hrs by broth microdilution assay; assay type: functional
Mycobacterium leprae [11] = assay: Anti-leprotic activity against Mycobacterium leprae infected in 538 CBA mouse assessed as number of Mycobacterium leprae in paw pads at 2 mg/kg administrated via gastric tube 5 times a week and measured 7 months post infection; assay type: functional
Mycobacterium leprae [12] = assay: Anti-leprotic activity against Mycobacterium leprae infected in 538 CBA mouse assessed as number of Mycobacterium leprae in paw pads at 6 mg/kg administrated via gastric tube 5 times a week and measured 7 months post infection; assay type: functional
Monocyte [13] = assay: Antiinflammatory activity in human monocytes assessed as inhibition of LPS-induced TNFaplha production at 50 uM preincubated for 15 mins followed by LPS addition and measured after 4 hrs by ELISA relative to control; assay type: functional
[14] = Cytotoxicity against LPS-induced human monocytes assessed as cell viability at 50 uM by tryphan blue staining based assay relative to control; parameters: species or system Monocyte; settings: read-out: Activity
Monocyte [15] = assay: Antiinflammatory activity in human monocytes assessed as inhibition of LPS-induced TNFaplha production at 25 uM preincubated for 15 mins followed by LPS addition and measured after 4 hrs by ELISA relative to control; assay type: functional

With `O=C1c2ccccc2C(=O)N1c1ccc(S(=O)(=O)Nc2ccccn2)cn1` the MIC99 [1] was 6100 µM (≈ 2320 µg/mL).
For `Nc1nc(N)c2nc(CNc3ccc(C(=O)N[C@@H](CCC(=O)O)C(=O)O)cc3)cnc2n1` [AMINOPTERIN], the Ki [2] was 0.18 nM, the Ratio [3] was 23100 and the MIC [4] was 742 µM (≈ 327 µg/mL).
For `COc1cc(CCc2cnc3nc(N)nc(N)c3n2)cc(OC)c1OC`, the Ki [2] was 18 nM, the Ratio [3] was 2050 and the MIC [4] was greater than 281 µM.
For `CN(Cc1cnc2nc(N)nc(N)c2n1)c1ccc(C(=O)N[C@@H](CCC(=O)O)C(=O)O)cc1` [METHOTREXATE], the Ki [2] was 0.35 nM, the Ratio [3] was 11700 and the MIC [4] was 2200 µM (≈ 1000 µg/mL).
`CC(=O)Nc1ccc(S(=O)(=O)c2ccc(NC(C)=O)c(C)c2)cc1` showed a Survival (Plasmodium berghei) of 9 weeks, a Survival (Mycobacterium leprae [5]) greater than 8 weeks and a dose excreted at 720 h [6] of 31%. The half-life [7] was 35 days, the Drug uptake [8] was 0.7 µg/mL and the Activity (Rattus norvegicus) was 1 g/dL.
With `CC(=O)Nc1ccc(S(=O)(=O)c2ccc(NC(C)=O)cc2)cc1` [ACEDAPSONE] the Survival (Plasmodium berghei) was 12 weeks, the Survival (Mycobacterium leprae [5]) was greater than 8 weeks and the dose excreted at 720 h [6] was 7%. The half-life [7] was greater than 200 days, the Drug uptake [8] was 0.2 µg/mL and the Activity (Rattus norvegicus) was 0 g/dL.
With `CCCCCCCCC(CCC1CCCO1)C(=O)O` (stereo not drawn) the MIC99 [1] was 9600 µM (≈ 2600 µg/mL).
With `CCc1nc(N)nc(N)c1-c1ccc(Cl)cc1` [PYRIMETHAMINE] the Ki [2] was 75 nM, the Ratio [3] was 0.8 and the MIC [4] was 101 µM (≈ 25.1 µg/mL).
`CCCCc1cnc2nc(N)nc(N)c2n1` showed a Ki [2] of 1 nM, a Ratio [3] of 4100 and an MIC [4] of 917 µM (≈ 200 µg/mL).
Work on `N#Cc1cc([N+](=O)[O-])cnc1SC(=S)N1CCCC1` yielded an MIC [9] of 3.12 µg/mL (≈ 10.6 µM), an MIC (Mycolicibacterium aurum) of 1.56 µg/mL (≈ 5.3 µM) and an MIC (Mycolicibacterium vaccae) of 1.56 µg/mL (≈ 5.3 µM). It also gave an MIC [10] of 1.56 µg/mL (≈ 5.3 µM), an Activity (Mycobacterium leprae [11]) of 0.56 ×10⁷ No_unit and an Activity (Mycobacterium leprae [12]) of 0.28 ×10⁷ No_unit.
Molecule `COc1cc(Cc2cnc3nc(N)nc(N)c3n2)cc(OC)c1OC` has a Ki [2] of 5 nM, a Ratio [3] of 230 and an MIC [4] of 347 µM (≈ 119 µg/mL).
In the case of `COc1cc(Oc2cnc(N)nc2N)cc(OC)c1Br`, the Activity (Mycobacterium leprae [11]) is reported as 1.27 ×10⁷ No_unit and the Activity (Mycobacterium leprae [12]) is reported as 0.56 ×10⁷ No_unit.
Molecule `Cc1cnc2nc(N)nc(N)c2n1` has a Ki [2] of 5100 nM, a Ratio [3] of 0.8 and an MIC [4] greater than 568 µM.
Molecule `CCC1(N2C(=O)c3c(F)c(F)c(F)c(F)c3C2=O)C(=O)NC(=O)N(c2ccccc2)C1=O` (stereo not drawn) has an inhibition at 50 µM (Monocyte [13]) of 16% and a viability at 50 µM [14] of 68%.
In the case of `CC(=O)Nc1ccc(S(=O)(=O)c2ccc(/N=C/c3ccc(/C=N/c4ccc(S(=O)(=O)c5ccc(NC(C)=O)cc5)cc4)cc3)cc2)cc1`, the Survival (Plasmodium berghei) is reported as 5 - 7 weeks, the Survival (Mycobacterium leprae [5]) is reported as greater than 8 weeks and the dose excreted at 720 h [6] is reported as 40%. It also gave a half-life [7] of 55 days, a Drug uptake [8] of 0.4 µg/mL and an Activity (Rattus norvegicus) of 0.2 g/dL.
Work on `NC(=O)c1cc([N+](=O)[O-])cc([N+](=O)[O-])c1SC(=S)N1CCCC1` yielded an MIC [9] of 50 µg/mL (≈ 140 µM), an MIC (Mycolicibacterium aurum) of 6.25 µg/mL (≈ 17.5 µM) and an MIC (Mycolicibacterium vaccae) of 0.4 µg/mL (≈ 1.12 µM). The MIC [10] was 6.25 µg/mL (≈ 17.5 µM).
For `N#Cc1cc([N+](=O)[O-])cnc1SC(=S)N1CCCCCC1`, the MIC [9] was 1.56 µg/mL (≈ 4.84 µM), the MIC (Mycolicibacterium aurum) was 1.56 µg/mL (≈ 4.84 µM) and the MIC (Mycolicibacterium vaccae) was 0.4 µg/mL (≈ 1.24 µM). For the same molecule, the MIC [10] was 0.8 µg/mL (≈ 2.48 µM), the Activity (Mycobacterium leprae [11]) was 6.64 ×10⁷ No_unit and the Activity (Mycobacterium leprae [12]) was 0.28 ×10⁷ No_unit.
Molecule `N#Cc1cc([N+](=O)[O-])cnc1SC(=S)N1CCCCC1` has an MIC [9] of 3.12 µg/mL (≈ 10.1 µM), an MIC (Mycolicibacterium aurum) of 1.56 µg/mL (≈ 5.06 µM) and an MIC (Mycolicibacterium vaccae) of 1.56 µg/mL (≈ 5.06 µM). It also gave an MIC [10] of 1.56 µg/mL (≈ 5.06 µM).
`Nc1nc(N)c2nc(Cc3ccc(Cl)c(Cl)c3)cnc2n1` gave a Ki [2] of 2 nM, a Ratio [3] of 58.5 and an MIC [4] greater than 311 µM.
Work on `O=C1c2ccccc2C(=O)N1c1ccc(S(=O)(=O)Nc2cnccn2)cc1` yielded an MIC99 [1] of 6800 µM (≈ 2590 µg/mL).
In the case of `O=C1c2cccc([N+](=O)[O-])c2C(=O)N1c1cn(-c2ccccc2)c(=O)[nH]c1=O`, the inhibition at 50 µM (Monocyte [13]) is reported as less than 10%, the inhibition at 25 µM (Monocyte [15]) is reported as less than 10% and the viability at 50 µM [14] is reported as 90%.
Molecule `CC(C)Cc1cnc2nc(N)nc(N)c2n1` has a Ki [2] of 0.9 nM, a Ratio [3] of 4560 and an MIC [4] of 688 µM (≈ 150 µg/mL).
For `Nc1nc(N)c2nc(Cc3ccccc3)cnc2n1`, the Ki [2] was 0.9 nM, the Ratio [3] was 4560 and the MIC [4] was greater than 794 µM.

From ChEMBL document CHEMBL4613212, “Insights of synthetic analogues of anti-leprosy agents” (Bioorg Med Chem, 2019)
